Where two headings read alike, the source gives them in different places.
Key:
[1] = test system: uridine salvage in K562 and A549 cells; test: Uridine salvage inhibition by 5-ethynyl-uridine (5-EU) incorporation and click chemistry; type: cell-based; details: Homo sapiens
MV4-11 cells = test: MV4-11 cell killing, DP with GSK983 in uridine supplemented media; type: cell-based; details: Homo sapiens, 158 nM GSK983, 20 μM uridine supplemented media
[2] = test system: A549 lung cancer cell line; test: A549 cell count, DP with GSK983 in uridine supplemented media; type: cell-based; details: Homo sapiens, 158 nM GSK983, 20 μM uridine supplemented media, 72 h, read-out: IC50(DP), A549 viable cell count
DENV [3] = test: DENV antiviral assay for combination of GSK983 and DP; type: cell-based, dengue virus serotype 2 strain 16681; details: Dengue virus
K562 cells [4] = test: K562 cell count, DP with GSK983 in uridine supplemented media; type: cell-based; details: Homo sapiens, 50 nM GSK983, 20 μM uridine supplemented media, 72 h
K562 cells [5] = test: GSK983 dose response, K562 cell growth (viable cells by flow cytometry); type: cell-based; details: Homo sapiens, 72 h treatment, viable cells counted by flow cytometry, read-out: IC50, inhibition of K562 cell growth
Procedure: GSK983 dose response and growth time course in K562 cells. To determine the dose response of K562 cells to GSK983, K562 cells were seeded into 24-well plates at a density of 50,000 cells/mL and treated with GSK983 at the indicated concentration for 72 h. Following 72 h treatment, cells were harvested and the density of viable cells was determined by flow cytometry (FSC/SSC) using a BD Accuri C6 Flow Cytometer. IC50 values were calculated by fitting a 4-parameter logistic equation to the data. […] At the indicated time points, cells were harvested and the density of viable cells was determined by flow cytometry (FSC/SSC) using a BD Accuri C6 Flow Cytometer.

DENV [6] = test: DENV antiviral assay (DENV-Luc replication in A549 cells); type: cell-based, dengue virus serotype 2 strain 16681; details: for IC50: Dengue virus, A549, 72 h
recombinant human CMPK1 = target: T1, recombinant human CMPK1 (Homo sapiens, UniProt P30085); test: In vitro enzyme activity assay with recombinant human CMPK1 (ATP consumption); type: biochemical; details: GSK983 concentrations up to 10 μM
T1 sequence (P30085 1-196): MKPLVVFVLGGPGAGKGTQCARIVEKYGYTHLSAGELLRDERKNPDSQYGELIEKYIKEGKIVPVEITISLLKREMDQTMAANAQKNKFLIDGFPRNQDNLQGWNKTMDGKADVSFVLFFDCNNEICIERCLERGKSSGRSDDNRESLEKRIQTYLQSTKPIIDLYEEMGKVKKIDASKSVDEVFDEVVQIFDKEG
Procedure: In vitro enzyme activity assays with recombinant human CMPK1. The activity of recombinant human CMPK1 was measured in the presence of GSK983 using an ATP consumption assay. CMPK1 (10 nM) was added to a reaction buffer containing Tris (50 mM, pH 7.5), MgCl2 (2 mM), DTT (2 mM), ATP (100 μM), CMP (100 μM), and GSK983 (0-10 μM, from a DMSO stock solution). The final concentration of DMSO in all reaction mixtures was 2% (v/v). Enzyme activity assays were conducted at 37° C. The consumption of phosphoryl donor ATP was monitored using a Promega Kinase-Glo Luminescent Kinase Assay kit according to the manufacturer's instructions. We observed no effect of GSK983 on CMPK1 activity in vitro at GSK983 concentrations up to 10 μM.

DENV [7] = type: cell-based, dengue virus serotype 2 strain 16681; details: 48 nM GSK983, 20 μM uridine, UCK2 shRNA derivative
recombinant human DHODH = recombinant human DHODH (Homo sapiens, UniProt Q02127); test: In vitro enzyme activity assay with recombinant human Δ29DHODH (DCPIP coupled assay); type: biochemical; details: recombinant human Δ29DHODH 10 nM, DHO 200 μM; read-out: Ki, DHODH, competitive with respect to decylubiquinone binding
Procedure: The reduction of DCPIP can be monitored by the loss of absorbance at 610 nm (ε=21,500 M−1cm-1). Kinetic constants were calculated from measurements in which Δ29DHODH (10 nM) was either titrated with different concentrations of decylubiquinone (QD, 10-60 μM) at a fixed concentration of DHO (200 μM) or titrated with different concentrations of DHO (10-60 μM) at a fixed concentration of QD (100 μM). Enzymatic assays were conducted at 25° C. in a reaction buffer containing Tris (100 mM, pH 8.0), NaCl (150 mM), DCPIP (60 μM), glycerol (10% v/v), and Triton X-100 (0.1% v/v). The Km values for Δ29DHODH (15 μM for DHO and 14 μM for QD) were in good agreement with previously reported values for both the full-size and N-terminally truncated enzyme.
For each inhibitor compound, three reactions were prepared: a control reaction containing no inhibitor and two reactions containing different inhibitor concentrations. Δ29DHODH was incubated with inhibitor compounds at room temperature for 5 min. The indicated concentration of QD and DHO (200 μM) were added to the reaction mixtures and absorbance at 610 nm was monitored using a PerkinElmer Lamda 25 UV-Vis spectrophotometer. For enzyme activity assays, inhibitor compounds were prepared as 1 mM stock solutions in DMSO. A QD stock solution (10 mM) was prepared in a buffer containing Tris (100 mM, pH 8.0) and Triton X-100 (1.0% v/v). […]

A549 cells = test: A549 cell viability assay accompanying the DENV assay; type: cell-based, human; details: 30 nM GSK983 and 1 mM deoxycytidine, 72 h
K562 cells [8] = test: Annexin V-FITC/7-AAD apoptosis assay; type: cell-based, human; details: 72 h GSK983 treatment
Procedure: Annexin V-FITC/7-AAD apoptosis assay. K562 cells were seeded into 24-well plates at a density of 50,000 cells/mL and treated with the indicated concentration of GSK983 for 72 h. The final concentration of DMSO in each well was <0.1%. Following 72 h GSK983 treatment, cells were harvested and pelleted (399 g, 5 min). The supernatant was removed by vacuum. Cell death by apoptosis was analyzed using a BioVision Annexin V-FITC Apoptosis Kit (catalog number K101-100). A staining solution was prepared by first diluting the provided Annexin V-FITC solution in binding buffer according to the specifications of the manufacturer. 7-AAD was added from a stock solution in DMSO (0.67 mg/mL) such that the final concentration of 7-AAD in the staining solution was 2.5 μg/mL. Cell samples were resuspended in 0.5 mL of the staining solution. Samples were incubated at room temperature for 10 min in the dark and analyzed by flow cytometry using a BD Accuri C6 Flow Cytometer. FITC fluorescence was detected in FL1 and 7-AAD fluorescence was detected in FL3.

[9] = test system: variety of unrelated viruses; details: Harvey et al. (2009); read-out: EC50, inhibition of replication of a variety of unrelated viruses in vitro; cited from earlier work
VEEV = test: microbe, parasite or virus in culture; type: cell-based, Venezuelan equine encephalitis virus (vaccine strain TC-83); details: Venezuelan equine encephalitis virus, A549, read-out: IC50, inhibition of VEEV replication
K562 cells [10] = test: Cell cycle analysis based on total DNA content (propidium iodide); design: species or system human; details: 24 h GSK983 treatment
Procedure: Cell cycle analysis based on total DNA content (propidium iodide). […] Cells were treated with the indicated concentration of GSK983 for 24 h. […] Following 24 treatment, cells were harvested and pelleted (300 g, 5 min). The supernatant was removed by vacuum and the cells were washed (0.5 mL 1×PBS). Cells were resuspended in 70% EtOH (1 mL, 0° C.) with mild vortexing. Cells were fixed in 70% EtOH overnight at 4° C. The following day, fixed cells were pelleted (1900 g, 5 min), washed (0.5 mL 1×PBS), and resuspended in 200 μL of a total DNA content staining solution (1×PBS with 50 μg/mL RNase A and 10 μg/mL propidium iodide). Samples were incubated for 30 min at 37° C. and analyzed by flow cytometry using a BD Accuri C6 Flow Cytometer. Propidium iodide fluorescence was detected in FL2.

[11] = test system: chronic myelogenous leukemia (CML); details: in vivo; cited from earlier work

Chain of recombinant human DHODH (Q02127 30-395): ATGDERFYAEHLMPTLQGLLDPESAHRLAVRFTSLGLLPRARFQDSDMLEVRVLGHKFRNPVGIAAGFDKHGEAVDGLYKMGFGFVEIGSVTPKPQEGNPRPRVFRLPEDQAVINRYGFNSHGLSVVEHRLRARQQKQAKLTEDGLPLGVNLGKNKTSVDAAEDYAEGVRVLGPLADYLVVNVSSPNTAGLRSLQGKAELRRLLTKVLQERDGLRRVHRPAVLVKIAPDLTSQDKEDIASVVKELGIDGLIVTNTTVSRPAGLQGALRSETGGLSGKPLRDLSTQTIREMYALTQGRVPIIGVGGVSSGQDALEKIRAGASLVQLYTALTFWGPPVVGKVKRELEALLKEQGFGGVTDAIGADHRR

Work on `OCCN(CCO)c1nc(N2CCCCC2)c2nc(N(CCO)CCO)nc(N3CCCCC3)c2n1` [DP, dipyridamole] yielded an IC50 [1] of 200 nM, an IC50 (MV4-11 cells) of 110 nM and an IC50 [2] of 230 nM. For the same compound, the EC50 (DENV [3]; A549, 48 h, read-out: EC50 of DP, DENV luciferase signal, 2 days post-infection) was 135 nM, the EC50 (DENV [3]; A549, 72 h, read-out: EC50 of DP, DENV luciferase signal, 3 days post-infection) was 164 nM and the IC50 (K562 cells [4]) was 110 nM.

For `O=C(N[C@@H]1CCCc2c1[nH]c1ccc(Cl)cc21)c1ccccn1` [GSK983, (R)—N-(6-Chloro-2,3,4,9-tetrahydro-1H-carbazol-1-yl)picolinamide], the IC50 (K562 cells [5]) was 21 nM, the “Reduction in DENV replication” value (DENV [6]; 30 nM GSK983 and 1 mM deoxycytidine, A549 cells) was roughly 90% and the “Antiviral activity against DENV with uridine supplementation” value (DENV [6]; A549 cells, 1 mM uridine) was “completely abolished the antiviral activity”. The IC50 (DENV [6]; read-out: IC50, inhibition of DENV replication) was 13.3 nM, the IC50 (DENV [6]; read-out: IC50, inhibition of DENV replication with exogenous deoxycytidine) was 13.5 nM and the “Effect on in vitro CMPK1 activity” value (recombinant human CMPK1) was “no effect”. The “DENV replication in A549 UCK2 shRNA cells” value (DENV [7]) was “inhibited viral replication in the latter cell-line”, the Ki (recombinant human DHODH) was 403 nM and the “Effect on A549 cell growth” value (A549 cells) was “minimal effect”. For the same compound, the “Cell death by apoptosis” value (K562 cells [8]) was “dose dependent increase in K562 cell death by apoptosis”, the EC50 [9] was 5 to 20 nM and the IC50 (VEEV) was 12.8 nM. For the same compound, the Cell cycle effect (K562 cells [10]) was “accumulation of K562 cells in S phase”.

For `Cc1c(-c2ccc(-c3ccccc3F)cc2)nc2ccc(F)cc2c1C(=O)O` [brequinar], the “Efficacy towards CML in mouse models” value [11] is given as “effective”.
